Laboratory results taken from the supplement of paper PMC10307832.

What was measured:
Experiment in all cases: relative viability (nuclei count vs DMSO), 5 days (fraction); higher = more cells survive
[1] = compound: CC1=C(C(=NN1)C)CC2=C(C3=C(S2)N(C(=O)N(C3=O)C)CC(C)C)C(=O)N4C[C@@H](CO4)O + COc1cc2c(Oc3ccc(NC(=O)C4(C(=O)Nc5ccc(F)cc5)CC4)cc3F)ccnc2cc1OCCCN1CCOCC1 [Foretinib] (partner 0.25 µM)
Summary of the method: (§1)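 For relative viability, nuclei counts in treated wells were divided by those in vehicle wells. Lung cancer cell lines had been pin-tool dosed in 1536-well plates the day after seeding and cultured for 5 days, then fixed and stained in one step (final 0.05% Triton X-100, 1% formaldehyde, 1 ug/ml Hoechst) and imaged at 4×. Doses were one drug alone or a fixed anchor-drug dose plus five library-drug doses (not always all listed) in √10 steps, and values are duplicate-plate medians.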

[2] = compound: CC1=C(C(=NN1)C)CC2=C(C3=C(S2)N(C(=O)N(C3=O)C)CC(C)C)C(=O)N4C[C@@H](CO4)O + C[C@@H](Oc1cc(-c2cnn(C3CCNCC3)c2)cnc1N)c1c(Cl)ccc(F)c1Cl [Crizotinib] (partner 1 µM)
Summary of the method: as §1

[3] = compound: CC1=C(C(=NN1)C)CC2=C(C3=C(S2)N(C(=O)N(C3=O)C)CC(C)C)C(=O)N4C[C@@H](CO4)O + C[C@]1(O)C[C@@H](c2nc(-c3ccc4ccc(-c5ccccc5)nc4c3)c3c(N)nccn32)C1 [Linsitinib] (partner 1 µM)
Summary of the method: as §1

[4] = compound: Cc1ccccc1C(C(=O)NC1CCCCC1)N(C(=O)Cn1ccnc1C)c1cccc(F)c1 [IDH-C35] + CS(=O)(=O)N1CCN(Cc2cc3nc(-c4cccc5[nH]ncc45)nc(N4CCOCC4)c3s2)CC1 [Pictilisib] (partner 1 µM)
Summary of the method: as §1

Cell Line	relative viability ([1]; first compound 0.0025 µM)	relative viability ([1]; first compound 0.007906 µM)	relative viability ([1]; first compound 0.025 µM)	relative viability ([1]; first compound 0.07906 µM)	relative viability ([1]; first compound 0.25 µM)	relative viability ([2]; first compound 0.0025 µM)	relative viability ([2]; first compound 0.007906 µM)	relative viability ([2]; first compound 0.025 µM)	relative viability ([2]; first compound 0.07906 µM)	relative viability ([2]; first compound 0.25 µM)	relative viability ([3]; first compound 0.0025 µM)	relative viability ([3]; first compound 0.007906 µM)	relative viability ([3]; first compound 0.025 µM)	relative viability ([3]; first compound 0.07906 µM)	relative viability ([3]; first compound 0.25 µM)	relative viability ([4]; first compound 0.08 µM)	relative viability ([4]; first compound 0.253 µM)	relative viability ([4]; first compound 0.8 µM)	relative viability ([4]; first compound 2.53 µM)	relative viability ([4]; first compound 8 µM)
SK-LU-1	0.659	0.556	0.527	0.492	0.548	0.654	0.6	0.653	0.693	0.643	0.86	0.712	0.711	0.774	0.731	0.535	0.483	0.641	0.606	0.63
NCI-H1975	0.946	1.06	1	0.949	0.984	0.942	1	1	0.869	1.08	0.956	1.04	1	0.949	1.08	0.293	0.322	0.288	0.319	0.326
NCI-H1703	0.38	0.391	0.386	0.329	0.362	0.84	0.828	0.898	0.688	0.777	0.691	0.253	0.638	0.448	0.804	0.235	0.264	0.285	0.262	0.206
NCI-H1651	0.708	0.832	0.735	0.821	0.815	0.807	0.857	0.822	0.804	0.786	1.03	1.26	0.944	0.908	1.06	0.562	0.522	0.504	0.492	0.434
NCI-H441	1.43	1.2	0.826	0.937	0.968	0.715	0.774	0.608	0.889	0.945	0.59	0.491	0.493	0.53	0.615	0.588	0.562	0.456	0.506	0.446
LCLC-103H	0.89	0.672	0.817	0.84	1.02	0.936	1.03	1.02	0.991	1.17	1.07	1.15	1.18	0.835	1.12	0.7	0.62	0.536	0.715	0.603
LCLC-97TM1	0.97	1.01	0.935	0.775	0.934	0.448	0.436	0.371	0.361	0.692	0.183	0.206	0.205	0.163	0.159	0.17	0.168	0.192	–	0.192
NCI-H727	1.15	1.13	0.882	0.876	0.897	0.697	0.65	0.882	0.838	0.754	0.233	0.324	0.386	0.259	0.247	0.528	0.522	0.54	0.441	0.43
NCI-H1355	1.04	1.11	1	1.02	1.12	1.07	1.09	1.09	1.05	1.14	0.889	0.927	0.867	0.791	0.785	0.446	0.442	0.395	0.269	0.398
HOP-62	1.2	1.09	1.04	1.06	1.09	0.807	1.11	1	0.819	1.12	1.01	0.967	0.889	1	0.817	0.509	0.744	0.537	–	0.581
NCI-H2085	0.965	0.803	0.957	0.796	0.827	0.923	0.726	0.8	0.89	0.862	0.953	0.956	0.814	0.844	0.77	0.489	0.523	0.451	0.49	0.442
